The record followed here is PubChem BioAssay AID1949 (Southern Research Institute, 2009).

≈ marks a conversion by molar mass, not a printed value. Results filed as inconclusive are left out. Calls of active or inactive are those of the source. How the calls were made is not given here.

This assay has as its system M. tuberculosis H37Rv growth inhibition. Put plainly: Confirmatory growth inhibition assay against Mycobacterium tuberculosis H37Rv, potency (AID 1949).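 Further: bacteria grown 7 days with compound before Alamar blue readout.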

A word on the IC50: it is the concentration needed to halve the response being measured. With `CCCS(=O)(=O)c1nnnn1-c1cccc(OC)c1`, the IC50 is 0.65 µg/mL (≈ 2.3 µM). In the case of `CCN(CC)CCSc1nc2sc3c(c2c(=O)n1-c1ccc(OC)cc1)CCCC3`, the IC50 is > 50 µg/mL (inactive). For the compound `Cc1ccc(Cl)cc1NC(=O)CC(O)(C(F)(F)F)C(F)(F)F`, the half-maximal inhibitory concentration (IC50) was 7.04 µg/mL (≈ 20.1 µM). Then `COC(=O)C1=C(C)N(c2ccc(F)c(Cl)c2)C(=O)C1`, with 13.5 µg/mL (≈ 47.4 µM); and `Cc1nc(N2CCN(Cc3ccc4c(c3)OCO4)CC2)nc2c1C(=O)CC(c1ccco1)C2` (stereo unspecified), with 5.06 µg/mL (≈ 11.3 µM); and `CCOC(=O)c1c(C)n(Cc2ccccc2)c2ccc(OCC(O)CNC(C)(C)C)cc12` (stereo unspecified), with 4.28 µg/mL (≈ 9.76 µM). Then `CCn1c(Sc2ncnc3ccccc23)nc2ccccc21`, with 2.77 µg/mL (≈ 9.04 µM). The result for `CCOc1cc(CNCCO)ccc1OCc1ccc(Cl)cc1Cl` reads 6.03 µg/mL (≈ 16.3 µM); that for `C=CCCCCCCCCC(=O)Nc1ccccc1C`, 8.62 µg/mL (≈ 31.5 µM); that for `O=C(CCN1CCC(c2ccccc2)C1)c1ccco1` (stereo unspecified), > 50 µg/mL (inactive). Take `Nc1c(C(=O)NCc2ccc(Cl)cc2)sc2nc3c(c(C(F)(F)F)c12)CCC3`: the concentration for half-maximal inhibition (IC50) was 9.45 µg/mL (≈ 22.2 µM).

Turning to `COC(=O)COc1cccc(NC(=O)c2ccc(Cl)cc2)c1`, the IC50 is 0.21 µg/mL (≈ 0.657 µM). The result for `O=[N+]([O-])/C=C/c1c[nH]c2ccc(Br)cc12` reads 8.61 µg/mL (≈ 32.2 µM); that for `OC(CN1CCCCCC1)CN1c2ccccc2Sc2ccccc21` (stereo unspecified), 9.1 µg/mL (≈ 25.7 µM). Then `CN=c1c([N+](=O)[O-])nn(-c2ccccc2)n1O`, with > 50 µg/mL (inactive); and `Clc1ccc(OCCCCCn2ccnc2)c(Cl)c1`, with 3.48 µg/mL (≈ 11.6 µM); and `O=c1c2oc3cccc4c3n(c=2c(=O)c2ccccc12)CCC4`, with 5.4 µg/mL (≈ 17.8 µM). On to `O=S(Cc1ccccc1)c1nc2ccccc2s1` (stereo unspecified), for which the IC50 is 3.15 µg/mL (≈ 11.5 µM).

For `O=C(COc1ccc(Cl)cc1)NCCC12CC3CC(CC(C3)C1)C2`, the IC50 was 43.5 µg/mL (≈ 125 µM).

For `CCOc1ccc(NC(=S)Nc2ccc3nsnc3c2)cc1`, the IC50 is 0.52 µg/mL (≈ 1.57 µM).

On to `CCOC(=O)c1c(C)n(-c2ccc(C)cc2)c2ccc(O)c(CN(C)C)c12`, for which the IC50 is 10.9 µg/mL (≈ 29.6 µM). `COC(=O)COc1ccc(NC(=O)COc2cccc(C)c2)cc1`: the IC50 is 0.77 µg/mL (≈ 2.34 µM). The result for `Cc1cccc(-n2c(N)cc(=O)nc2SCC(=O)Nc2nc(-c3ccccc3)cs2)c1` reads 3.08 µg/mL (≈ 6.85 µM).

With `CCOc1ccccc1C(=O)Nc1cc(Cl)ccc1O`, the IC50 was 4.22 µg/mL (≈ 14.5 µM). The result for `Cc1ccc(C(=O)Nc2cc(C#N)c3[nH]c4ccccc4n3c2=O)cc1` reads 6.55 µg/mL (≈ 19.1 µM); that for `CC(=O)C1=C(C)NC(SCC(=O)Nc2nc3ccccc3s2)=C(C#N)C1c1ccc(Cl)cc1` (stereo unspecified), 4.1 µg/mL (≈ 8.28 µM); that for `Cc1ccc(SCC(=O)Nc2cccc(F)c2)cc1`, 5.34 µg/mL (≈ 19.4 µM).

For `Cc1ccc(C(=O)Nc2nc(C(C)(C)C)cs2)cc1[N+](=O)[O-]`, the IC50 was 27.2 µg/mL (≈ 85.3 µM). As to `Cc1ccc(OC(F)F)c(NC(=O)Nc2ccc([N+](=O)[O-])cc2)c1`, the IC50 is 22.4 µg/mL (≈ 66.5 µM). Then `COC(=O)C(C)Oc1ccc2c(=O)c(-c3ccc(Br)cc3)c(C)oc2c1` (stereo unspecified), with 2.42 µg/mL (≈ 5.8 µM); and `Cc1ccc(Cl)cc1N1CCN(CC(O)COc2ccc(Cl)cc2)CC1` (stereo unspecified), with 4.57 µg/mL (≈ 11.6 µM); and `CCn1c(/C=C/c2ccc([N+](=O)[O-])o2)nc2ccc(I)cc2c1=O`, with 2.04 µg/mL (≈ 4.67 µM). The result for `CC1(C)COC(/C=C/c2cccc([N+](=O)[O-])c2)=N1` reads 11.6 µg/mL (≈ 47.1 µM); that for `Cc1cc(-c2csc(Nc3ccc(S(N)(=O)=O)cc3)n2)ccc1F`, 2.34 µg/mL (≈ 6.44 µM); that for `Cc1cc(Nc2ccc(N(C)C)cc2)c2cccc(C)c2n1`, 4.43 µg/mL (≈ 15.2 µM). Regarding `O=C(Nc1cccc2ncccc12)c1ccc([N+](=O)[O-])o1`, the IC50 is 4.28 µg/mL (≈ 15.1 µM). Regarding `C=CCc1cc(C)ccc1OCCCn1ccnc1`, the IC50 was 3.52 µg/mL (≈ 13.7 µM).

With `O=C(OCc1ccc(S(=O)(=O)c2ccccc2)cc1)c1ccccc1Br`, the IC50 is 8.37 µg/mL (≈ 19.4 µM). Then `CCC1CCCCN1C(=S)NC(=O)c1ccc(F)cc1` (stereo unspecified), with 0.73 µg/mL (≈ 2.48 µM); and `CN1CCN(c2ccc(NC(=O)c3sc4ccccc4c3Cl)cc2)CC1`, with > 50 µg/mL (inactive). The result for `Cc1ccc2nc(N/N=C\c3ccc([N+](=O)[O-])o3)nc(-c3ccccc3)c2c1` reads 3.63 µg/mL (≈ 9.72 µM); that for `CN(C)c1ccc(Nc2ncnc3ccc(Br)cc23)cc1`, 1.08 µg/mL (≈ 3.15 µM). The result for `Cn1nc([N+](=O)[O-])nc1Oc1ccc(Br)cc1` reads 7.92 µg/mL (≈ 26.5 µM); that for `CCc1ccc(OCC(=O)Nc2ccc(N3CCN(C(=O)c4cccs4)CC3)c(Cl)c2)cc1`, 2.95 µg/mL (≈ 6.09 µM); that for `COc1ccccc1Nc1nc(NCc2ccccc2)c2ccccc2n1`, 3.21 µg/mL (≈ 9.01 µM).

As for `O=C(CSc1ccc(Cl)cc1)Nc1ccc(Br)cn1`, the IC50 is 3.02 µg/mL (≈ 8.44 µM).

On to `CCOc1ccc(NC(=O)c2c(NC(=O)CNCCN3CCOCC3)sc3c2CCC3)cc1`, for which the concentration for half-maximal inhibition (IC50) is 1.33 µg/mL (≈ 2.81 µM).

For the compound `CCNS(=O)(=O)c1ccc(NC(=O)Nc2cccc(C(F)(F)F)c2)cc1`, the IC50 is 7.85 µg/mL (≈ 20.3 µM). The result for `COC(=O)COc1ccc(CSCC(=O)Nc2ccc3ccccc3c2)cc1` reads 0.44 µg/mL (≈ 1.11 µM). Then `COc1ccc(NC(=O)C(Cc2c[nH]c3ccccc23)NC(C)=O)cc1` (stereo unspecified), with 3.08 µg/mL (≈ 8.76 µM); and `COC(=O)c1ccc(CSc2nnc(-c3ccncc3)o2)o1`, with > 50 µg/mL (inactive).
